Converted amounts (≈) assume the structure as drawn.
Assays:
Wild type EGFR = target: T1, Wild type EGFR (Homo sapiens, UniProt P00533); test: Kinase activity test (FRET), wild type EGFR; format: biochemical; conditions: wild type EGFR; read-out: Inhibitory activity of EGFR on kinase (IC50, nM) WT
T1 construct: purchased Invitrogen PV3872
Experimental: (§1) EGFR-TK catalyses transfer of one phosphate group of adenosine triphosphate (ATP) to polypeptide substrate, poly(Glu, Tyr)4:1, which is labeled with two fluorescent groups coumarin and fluorescein.
(§2) 2.5 μL of Test Compounds, 5 μL Kinase/Peptide Substrate Mixture, 2.5 μL ATP Solution were added into a 384-well plate, and the 10 μL of reaction system was shaken for 30 s and incubated at room temperature for 1 h. 5 μL of Development Solution was added and the 15 μL of reaction system was shaken for 30 s, and incubated at room temperature for 1 h. […] The inhibitory rates of the compounds at 7 concentration gradients were determined and the IC50 value for each compound was calculated by Origin 8.0 fitting curve.
(§3) 10 concentration gradients from 5.1×10^−11 mol/L to 1.0×10^−6 mol/L were set for all compounds to be tested.
(§4) Compounds were diluted in DMSO for three times from 5.1×10^−9 M to 1×10^−4 M. 4 μL of the compound was dissolved in 96 μL of water to obtain a 4× compound solution. […] The 10 μL kinase reaction consisted of 2.5 μL compound solution, 5 μL kinase/peptide mix, 2.5 μL ATP solution. […] 5 μL of phosphorylated peptide solution, instead of the kinase/peptide mixture, was used as a 100% phosphorylation control. […] The plates were thoroughly mixed and incubated at room temperature for 1.5 hours. 5 μL of Development Solution was added into each well and then incubated for another 1 hour at room temperature, unphosphorylated peptides were cleaved during this period. Finally, 5 μL Stop Reagent was added to quench the reaction. The plates were measured with EnVision Multilabel Reader (Perkin Elmer). The experimental data were calculated using GraphPad Prism version 4.0. Each experiment was repeated more than 3 times.

[1] = test system: H1975 cells (EGFR L858R/T790M); test: Inhibitory activity on cell proliferation, H1975; format: cell-based; conditions: Homo sapiens, NCI-H1975; H1975, 72 hours; read-out: Inhibitory activity on proliferation of cells (IC50, μM) H1975
Experimental: (§5) Cell proliferation activity was assessed by MTS assay. Cells were exposed to processing conditions for 72 hours and the number of cells used in each experiment for each cell line was adjusted based on absorbance values (absorbance values at 490 nm, 1.3-2.2). Six concentration gradients (0.1 nM-10 μM) were set for the compounds to be tested, wherein at least 6 sets of parallel controls for each concentration were used.
(§6) H1975, A431 cells were cultured in corresponding media, and cells were passaged at least twice after resuscitation and then used for experiments. Cells at Log phase were trypsinized and resuspended in culture medium. H1975 (1000 cells per well), A431 (2000 cells per well) were seeded in 96-well plates in a volume of 100 μL; and 6 sets of parallel controls and 7 columns were set. The plate was placed in a 37° C. 5% CO2 incubator overnight. Compounds were dissolved in DMSO to a concentration of […], and then the concentration was gradually diluted to 10 μM, 1 μM, 0.1 μM, 0.01 μM, 0.001 μM, 0.0001 μM per liter, respectively. 2 μL of the compound solution was added to 998 μL of medium, and the mixture was thoroughly mixed. 100 μL of the mixture was added to a 96-well plate. […] After culturing for 68 hours, 20 μL of MTT (5 mg/mL) was added. After 4 hours, the supernatant was discarded and 150 μL of DMSO was added. After shaking for 10 minutes, the plate was read with Synergy HT (Bio TeK) (OD490). Data were calculated using GraphPad Prism version 4.0 and IC50 values were obtained using a non-linear regression model of dose response curve.

EGFR-L858R/T790M = target: T2, EGFR-L858R/T790M (Homo sapiens, UniProt P00533, L858R/T790M); test: Kinase activity test (FRET), EGFR T790M/L858R; format: biochemical; conditions: EGFR T790M/L858R; read-out: Inhibitory activity of EGFR on kinase (IC50, nM) T790M/L858R
T2 construct: purchased Invitrogen PV4879
Experimental: as §1, §2, §3, §4

[2] = test system: A431 cells (EGFR wild type); test: Inhibitory activity on cell proliferation, A431; format: cell-based; conditions: Homo sapiens, A-431; A431, 72 hours; read-out: Inhibitory activity on proliferation of cells (IC50, μM) A431
Experimental: as §5, §6

[3] = Determination of solubility in water (PBS 20 mM, pH 6.8); format: physicochemical; conditions: PBS buffer, aqueous buffer, thermodynamic from solid; pH 6.8, 20 mM PBS; read-out: Solubility (pH 6.8, g/mL)
Experimental: The suspension was filtered through a 0.22 μm PVDF filter, and then diluted to an appropriate concentration with methanol (v=50%) and PBS (v=50%), and the absorbance was measured by a UV spectrophotometer. About 3 mg of compound was accurately weighed, and methanol was added for preparing a stock solution of 1 mg/mL. The above stock solution was taken and prepared into a solution at concentrations of 0.05, 0.04, 0.03, 0.02 and 0.01 mg/mL, respectively, PBS solution (v=50%) was added and the absorbance value was measured. Concentration c (mg/mL) as horizontal ordinate vs absorbance A as longitudinal coordinate was plotted, and a line was fitted for obtaining a standard curve (correlation coefficient greater than 0.998). The solubility of a compound in water was calculated from the standard curve.

T2 sequence (P00533 25-1210 T790M/L858R): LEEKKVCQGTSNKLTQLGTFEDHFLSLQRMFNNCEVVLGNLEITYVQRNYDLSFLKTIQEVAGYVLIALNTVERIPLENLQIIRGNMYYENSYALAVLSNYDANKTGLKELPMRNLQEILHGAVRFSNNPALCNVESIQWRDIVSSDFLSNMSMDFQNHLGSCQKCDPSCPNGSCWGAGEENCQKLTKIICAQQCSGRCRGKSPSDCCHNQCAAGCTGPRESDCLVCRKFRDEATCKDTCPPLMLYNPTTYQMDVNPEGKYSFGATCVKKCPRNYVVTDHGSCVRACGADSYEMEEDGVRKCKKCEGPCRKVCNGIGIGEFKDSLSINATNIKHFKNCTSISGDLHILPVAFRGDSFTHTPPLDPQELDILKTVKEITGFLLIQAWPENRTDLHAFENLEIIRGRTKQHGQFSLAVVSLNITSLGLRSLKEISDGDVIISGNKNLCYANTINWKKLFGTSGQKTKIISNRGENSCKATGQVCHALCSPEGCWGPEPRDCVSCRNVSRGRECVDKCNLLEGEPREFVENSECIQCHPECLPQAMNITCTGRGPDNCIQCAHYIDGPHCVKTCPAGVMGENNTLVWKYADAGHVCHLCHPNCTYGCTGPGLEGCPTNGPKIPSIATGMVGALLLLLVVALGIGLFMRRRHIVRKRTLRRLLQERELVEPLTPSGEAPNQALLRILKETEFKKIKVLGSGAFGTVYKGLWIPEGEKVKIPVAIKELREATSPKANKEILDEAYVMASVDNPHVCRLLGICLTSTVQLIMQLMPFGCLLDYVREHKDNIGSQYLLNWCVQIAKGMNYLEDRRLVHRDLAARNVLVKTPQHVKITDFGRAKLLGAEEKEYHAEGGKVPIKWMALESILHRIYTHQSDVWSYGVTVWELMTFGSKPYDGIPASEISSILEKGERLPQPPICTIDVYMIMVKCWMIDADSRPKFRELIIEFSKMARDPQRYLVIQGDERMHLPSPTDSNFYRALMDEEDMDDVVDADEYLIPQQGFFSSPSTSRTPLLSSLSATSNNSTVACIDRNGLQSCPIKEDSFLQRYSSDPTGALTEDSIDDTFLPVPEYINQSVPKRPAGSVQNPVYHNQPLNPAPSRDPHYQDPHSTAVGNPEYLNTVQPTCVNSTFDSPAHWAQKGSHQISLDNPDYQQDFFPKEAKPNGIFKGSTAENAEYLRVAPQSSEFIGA
T1 sequence (P00533 25-1210): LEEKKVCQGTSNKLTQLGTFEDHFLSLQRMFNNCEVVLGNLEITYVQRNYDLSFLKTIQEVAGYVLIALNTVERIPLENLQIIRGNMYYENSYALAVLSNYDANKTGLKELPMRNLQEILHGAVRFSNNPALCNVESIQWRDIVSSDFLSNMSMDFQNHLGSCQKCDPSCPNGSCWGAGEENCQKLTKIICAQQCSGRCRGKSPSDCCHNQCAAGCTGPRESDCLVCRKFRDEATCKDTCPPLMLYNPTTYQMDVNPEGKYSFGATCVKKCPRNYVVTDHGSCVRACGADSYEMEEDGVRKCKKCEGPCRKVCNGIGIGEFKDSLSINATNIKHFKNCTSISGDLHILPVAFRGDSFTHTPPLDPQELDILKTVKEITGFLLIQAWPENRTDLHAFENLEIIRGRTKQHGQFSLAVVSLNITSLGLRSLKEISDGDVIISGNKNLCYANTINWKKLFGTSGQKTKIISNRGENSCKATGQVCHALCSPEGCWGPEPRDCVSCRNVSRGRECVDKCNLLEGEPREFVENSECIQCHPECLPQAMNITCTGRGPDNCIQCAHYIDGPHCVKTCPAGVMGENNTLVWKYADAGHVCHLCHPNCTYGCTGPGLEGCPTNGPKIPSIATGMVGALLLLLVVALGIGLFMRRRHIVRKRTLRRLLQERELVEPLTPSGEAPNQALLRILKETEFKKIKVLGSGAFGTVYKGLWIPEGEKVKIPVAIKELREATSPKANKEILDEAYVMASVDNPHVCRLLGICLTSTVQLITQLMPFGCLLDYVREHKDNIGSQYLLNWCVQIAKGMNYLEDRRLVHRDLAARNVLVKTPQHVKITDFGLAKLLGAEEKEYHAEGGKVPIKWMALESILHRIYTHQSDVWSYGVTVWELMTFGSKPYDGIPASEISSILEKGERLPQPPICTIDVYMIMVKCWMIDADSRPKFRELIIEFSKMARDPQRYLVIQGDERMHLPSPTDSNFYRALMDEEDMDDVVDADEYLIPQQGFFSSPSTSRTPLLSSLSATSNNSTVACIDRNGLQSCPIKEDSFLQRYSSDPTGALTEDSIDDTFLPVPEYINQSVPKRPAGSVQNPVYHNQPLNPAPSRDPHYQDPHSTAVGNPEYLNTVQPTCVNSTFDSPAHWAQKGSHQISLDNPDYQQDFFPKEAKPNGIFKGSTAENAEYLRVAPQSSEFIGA

| SMILES | melting point | IC50 (Wild type EGFR) | IC50 [1] | IC50 (EGFR-L858R/T790M) | IC50 [2] | solubility [3] |
| --- | --- | --- | --- | --- | --- | --- |
| Cc1cc(Nc2ncc3nc(C(C)C)c(=O)n([C@H]4CCN(C(=O)/C=C/CN(C)C)C4)c3n2)ccc1N1CCN(C)CC1 [Compound 36, (S,E)-8-(1-(4-(dimethylamino)-2-butenoyl)3-pyrrolidinyl)-2-((3-methyl-4-(4-methyl-1-piperazinyl)phenyl)amino)-6-isopropyl-7(8H)pteridinone] | 159.9 to 160.7 °C | > 1000 nM | 2.2 µM | > 1000 nM | 9.6 µM | 737 µg/mL (≈ 1280 µM) |
| C=CC(=O)Nc1cccc(-n2c(=O)c(C(C)C)nc3cnc(Nc4ccc(N5CCN(C)CC5)cc4OC)nc32)c1 [Compound 37, N-(3-(6-isopropyl-2-((2-methoxy-4-(4-methyl-1-piperazinyl)phenyl)amino)-7-oxo-8(7H)pteridinyl)phenyl)acrylamide] | – | 26 nM | 0.074 µM | 4.9 nM | 3.23 µM | < 10 µg/mL |
| C=CC(=O)N1CC[C@H](n2c(=O)cnc3cnc(Nc4ccc(N5CCN(C)CC5)cc4OC)nc32)C1 [Compound 1] | – | 251 nM | 12.2 µM | 129 nM | 13.8 µM | 1280 µg/mL (≈ 2610 µM) |
| C=CC(=O)Nc1cccc(-n2c(=O)cnc3cnc(Nc4ccc(N5CCN(C)CC5)c(C)c4)nc32)c1 [Compound 5] | – | 2.4 nM | 0.006 µM | 0.6 nM | 0.82 µM | 122 µg/mL (≈ 246 µM) |
| C=CC(=O)N1CCC[C@@H](Cn2c(=O)c(C(C)C)nc3cnc(Nc4ccc(N5CCN(C)CC5)cc4OC)nc32)C1 [Compound 21, (R)-8-((1-acryloyl-3-piperidinyl)methyl)-6-isopropyl-2-((2-methoxy-4-(4-methyl-1-piperazinyl)phenyl)amino)-7(8H)-pteridinone] | – | 2880 nM | 4.49 µM | 251 nM | > 10 µM | 72.2 µg/mL (≈ 129 µM) |
| C=CC(=O)N1CCC[C@@H](Cn2c(=O)cnc3cnc(Nc4ccc(N5CCN(C)CC5)cc4OC)nc32)C1 [Compound 16, (R)-8-((1-acryloyl-3-piperidinyl)methyl)-2-((2-methoxy-4-(4-methyl-1-piperazinyl)phenyl)amino)-7(8H)-pteridinone] | – | 4700 nM | > 10 µM | > 10000 nM | > 10 µM | 956 µg/mL (≈ 1840 µM) |
| C=CC(=O)Nc1cccc(-n2c(=O)cnc3cnc(Nc4ccc(N5CCN(C)CC5)cc4OCCOC)nc32)c1 [Compound 10, N-(3-(2-((2-(methoxyethoxy)-4-(4-methyl-1-piperazinyl)phenyl)amino)-7-oxo-8(7H)-pteridinyl)phenyl)acrylamide] | – | 93.7 nM | 2.6 µM | 191 nM | 7.53 µM | 399 µg/mL (≈ 716 µM) |
| C=CC(=O)Nc1cccc(-n2c(=O)c(C(C)C)nc3cnc(Nc4ccc(N5CCN(C)CC5)cc4)nc32)c1 [Compound 13, N-(3-(6-isopropyl-2-((4-(4-methyl-1-piperazinyl)phenyl)amino)-7-oxo-8(7H)-pteridinyl)phenyl)acrylamide] | – | 4.2 nM | 0.046 µM | 5.7 nM | 1.48 µM | 8.9 µg/mL (≈ 17 µM) |
| C=CC(=O)N1CCC[C@H](Cn2c(=O)cnc3cnc(Nc4ccc(N5CCN(C)CC5)cc4OC)nc32)C1 [Compound 17] | – | 2190 nM | 1.42 µM | 191 nM | > 10 µM | 957 µg/mL (≈ 1850 µM) |
| C=CC(=O)N1CCC[C@@H](n2c(=O)cnc3cnc(Nc4ccc(N5CCN(C)CC5)cc4OC)nc32)C1 [Compound 22] | – | > 10000 nM | > 10 µM | 6900 nM | > 10 µM | 3230 µg/mL (≈ 6410 µM) |
| C=CC(=O)N1CC[C@H](n2c(=O)c(C(C)C)nc3cnc(Nc4ccc(N5CCN(C)CC5)cc4OC)nc32)C1 [Compound 26, (S)-8-(1-acryloyl-3-pyrrolidinyl)-6-isopropyl-2-((2-methoxy-4-(4-methyl-1-piperazinyl)phenyl)amino)-7(8H)-pteridinone] | – | 1300 nM | 3.23 µM | 559 nM | 9.5 µM | 10500 µg/mL (≈ 19700 µM) |
| C=CC(=O)Nc1cccc(-n2c(=O)cnc3cnc(Nc4ccc(CCN5CCN(C)CC5)cc4)nc32)c1 [Compound 8, N-(3-(2-((4-(2-(4-methyl-1-piperazinyl)ethyl)phenyl)amino)-7-oxo-8(7H)-pteridinyl)phenyl)acrylamide] | – | 5.7 nM | 0.09 µM | 2.1 nM | 0.97 µM | 280 µg/mL (≈ 549 µM) |
| C=CC(=O)Nc1cccc(-n2c(=O)cnc3cnc(Nc4ccc(N(C)CCN(C)C)cc4OC)nc32)c1 [Compound 18, N-(3-(2-((4-((2-(dimethylamino)ethyl)(methyl)amino)-2-methoxyphenyl)amino)-7-oxo-8(7H)-pteridinyl)phenyl)acrylamide] | – | 47 nM | 0.06 µM | 1 nM | 1.66 µM | 208 µg/mL (≈ 405 µM) |
| C=CC(=O)N1CCC(n2c(=O)c(-c3ccccc3)nc3cnc(Nc4ccc(N5CCN(C)CC5)c(C)c4)nc32)C1 (centres unmarked) [Compound 49, 8-(1-acryloyl-3-pyrrolidinyl)-2-((3-methyl-4-(4-methyl-1-piperazinyl)phenyl)amino)-6-phenyl-7(8H)pteridinone] | – | 19.2 nM | 0.368 µM | 14.2 nM | 0.287 µM | < 10 µg/mL |
| C=CC(=O)Nc1cccc(-n2c(=O)cnc3cnc(Nc4cc(C)c(N5CCN(C)CC5)cc4OC)nc32)c1 [Compound 6, N-(3-(2-4-((2-methoxy-5-methyl-4-(4-methyl-1-piperazinyl)phenyl)amino)-7-oxo-8(7H)-pteridinyl)phenyl)acrylamide] | – | 106 nM | 0.46 µM | 14.8 nM | 1.69 µM | 51.8 µg/mL (≈ 98.4 µM) |
| C=CC(=O)N1CC[C@H](n2c(=O)c(C(C)C)nc3cnc(Nc4ccc(N5CCN(C)CC5)c(C)c4)nc32)C1 [Compound 24, (S)-8-(1-acryloyl-3-pyrrolidinyl)-6-isopropyl-2-((3-methyl-4-(4-methyl-1-piperazinyl)phenyl)amino)-7(8H)-pteridinone] | – | 700 nM | 2.49 µM | 576 nM | 3.1 µM | 2920 µg/mL (≈ 5650 µM) |
| C=CC(=O)Nc1cccc(-n2c(=O)c(C(C)C)nc3cnc(Nc4ccc(N(C)CCN(C)C)cc4OC)nc32)c1 [Compound 19, N-(3-(2-((4-((2-(dimethylamino)ethyl)(methyl)amino)-2-methoxyphenyl)amino)-6-isopropyl-7-oxo-8(71-1)-pteridinyl)phenyl)acrylamide] | – | 174 nM | 1.16 µM | 14.1 nM | 3.41 µM | 90.7 µg/mL (≈ 163 µM) |
